Results: patent publication EP4549575A1 (priority 2023, dated 2025)
“Also recorded” adds a separate entry of the source. Read-outs that look alike come from different tables or passages of the source. Square brackets hold non-standard residues; d marks the D form. Ends that are not written are not given here. Peptide text beside a SMILES is read from it. βAla = NCCC(=O)O

What was measured:
[1] = Conformational studies based on circular dichroism; assay type: physicochemical
Description: Conformational studies based on circular dichroism were performed under different conditions, such as: • 10 mM phosphate buffer, pH 7 • MES buffer 10 mM, pH 6 • Buffer acetate 10 mM, pH 5 • Phosphate buffer 10 mM/TFE (1:1) • TFE (trifluoroethanol)
Conformational studies based on circular dichroism were performed under different conditions such as: • 10 mM phosphate buffer, pH7 • Phosphate buffer 10mM/TFE, pH7 (1:1) • TFE (trifluoroethanol)
Conformational studies based on circular dichroism were performed under different conditions, such as: • 10 mM phosphate buffer, pH7 • MES buffer 10 mM, pH6 • Buffer acetate 10 mM, pH5 • Phosphate buffer 10 mM/TFE, pH7 (1:1) • TFE (trifluoroethanol)
Conformational studies based on circular dichroism were performed under different conditions, such as: • 10 mM phosphate buffer, pH7 • 10mM phosphate buffer/TFE (1:1) • TFE (trifluoroethanol)

P. infestans [2] = assay type: cell-based; conditions: for PPI: solid medium, linear vs cyclic peptides (Figure 8); for PPI (%) ± dev. std (Solid medium): peptide 200 µM, PAM agar, mycelium plug, 3-4 days, vs untreated control
[3] = Chemical-physical properties (isoelectric point, net charge, solubility in water); assay type: physicochemical; conditions: for net charge: at pH 7
pronase [4] = assay: Stability towards proteolysis (pronase, LC-MS); assay type: in vitro ADME, Streptomyces griseus; conditions: peptide 200 µM, protease 5 µg/mL, 37°C, pH 7.5; for stability against proteolysis: 0-2 h
Description: The evaluation of the stability of CP20 and Ac-LP20 towards proteolysis was tested at a peptide concentration of 200 µM using pronase (commercially available mixture of proteases isolated from the extracellular fluid of Streptomyces griseus, 2.5 µg/mg). Another peptide was added to this analysis, namely LP20 (without N-terminal acetylation), as it is easier to synthesize and to also assess the influence of N-terminal acetylation on the stability of LP20. Each peptide was tested in the presence of the protease (5 µg/mL) at 37°C in a buffer solution (50 mM Tris, 10 mM CaCl2, 150 mM NaCl, 0.05 % (w/v) Brij 35, pH 7.5) and its stability monitored by liquid chromatography coupled to mass spectrometry (LC-MS) at different time intervals (t=0 min, 10 min, 30 min, 1 h, 2 h). To stop enzyme activity, a small amount of the solution (60 µL) was transferred to an HPLC vial containing 6 µL of a 10% TFA solution at these different time points.

P. infestans [5] = conditions: for PGI (%) ± dev. std (Liquid medium): peptide 200 µM, Pea Broth, sporangia, OD620, 72 h, vs untreated control
Saccharomyces cerevisiae = assay: Specificity: growth in liquid culture (OD620); assay type: cell-based; conditions: 200 µM; YEPD medium; measured hourly up to 5 h
Description: (§1) The specificity of antimicrobial molecules is a key aspect in their development, as good degrees of specificity result in the absence of toxicity to other organisms in the environment such as animals, plants, fungi, bacteria, yeasts, livestock and humans. Therefore, initial assays were carried out to assess the toxicity profiles of CP20 and CP32, similar to those reported in Colombo et al.. For this purpose, the two cyclic peptides were added at a concentration of 200 µM to liquid cultures of the following microorganism species: • (i) Agrobacterium tumefaciens GV3101, (ii) Escherichia coli DH5α and (iii) Saccharomyces cerevisiae. The culture media used were respectively Luria-Bertani (LB) for the bacterial cultures, while Yeast Extract Peptone Dextrose (YEPD) medium was used for S. cerevisiae. Growth was measured hourly (up to 5 h) using a spectrophotometer (OD620).

Escherichia coli DH5α = assay: Specificity: growth in liquid culture (OD620); assay type: cell-based; conditions: 200 µM; LB medium; measured hourly up to 5 h
Description: as §1

P. infestans [6] = assay type: in vivo; conditions: tomato (Solanum lycopersicum, cv. Marmande) leaf discs; co-inoculation with sporangia; 5-7 days; reference concentration 200 µM
P. infestans [7] = assay type: cell-based; conditions: 10 mg/l; Pea Broth; sporangia; OD620, 72 h; positive control
P. infestans [8] = assay type: cell-based; conditions: 10 mg/l; PAM agar; mycelium plug; 3-4 days; positive control
P. capsici = assay type: cell-based, Phytophthora capsici Leonian
P. viticola = assay type: in vivo, Plasmopara viticola (Berk. et Curt.) Berl. and De Toni; conditions: grapevine (Vitis vinifera cv. Pinot noir) leaf discs; mean ± standard deviation vs untreated control; concentration not given
P. ultimum = assay type: cell-based, Pythium ultimum var. ultimum Trow; conditions: PDA agar, mycelium; mean ± standard deviation vs untreated control; concentration not given
pronase [9] = assay: pronase (commercially available mixture of proteases isolated from the extracellular fluid of Streptomyces griseus, 2.5 µg/mg) in buffer solution (50 mM Tris, 10 mM CaCl2, 150 mM NaCl, 0.05 % (w/v) Br); conditions: 37°C, up to 2 h
[10] = pH 7-TFE: phosphate buffer 10 mM/TFE (1:1)
[11] = from PGI values at 0.02-200 µM, three-parameter logistic model

CSCC[C@H](NC(=O)[C@H](Cc1c[nH]c2ccccc12)NC(=O)[C@H](CCCNC(=N)N)NC(=O)CCNC(C)=O)C(=O)N[C@@H](CC(C)C)C(=O)N[C@H](C(=O)N[C@@H](Cc1ccc(O)cc1)C(=O)N[C@@H](CCCNC(=N)N)C(=O)N[C@@H](CCCNC(=N)N)C(N)=O)C(C)C [Ac-LP20, Ac-βA -R-W-M-L-V-Y-R-R-CONH2] (Ac-[βAla]RWMLVYRR-NH2)
Disordered (%) ([1]; 10 mM phosphate buffer, pH 7): 37% | Helixes (%) ([1]; 10 mM phosphate buffer, pH 7): 5% | Sheets (%) ([1]; 10 mM phosphate buffer, pH 7): 36% | Turns (%) ([1]; 10 mM phosphate buffer, pH 7): 22% | Disordered (%) ([1]; MES buffer 10 mM, pH 6): 33% | Helixes (%) ([1]; MES buffer 10 mM, pH 6): 6% | Sheets (%) ([1]; MES buffer 10 mM, pH 6): 40% | Turns (%) ([1]; MES buffer 10 mM, pH 6): 21% | Disordered (%) ([1]; TFE (trifluoroethanol)): 31% | Helixes (%) ([1]; TFE (trifluoroethanol)): 19% | Sheets (%) ([1]; TFE (trifluoroethanol)): 27% | Turns (%) ([1]; TFE (trifluoroethanol)): 23% | Disordered (%) ([1]; acetate buffer 10 mM, pH 5): 36% | Helixes (%) ([1]; acetate buffer 10 mM, pH 5): 7% | Sheets (%) ([1]; acetate buffer 10 mM, pH 5): 35% | Turns (%) ([1]; acetate buffer 10 mM, pH 5): 22% | Disordered (%) [1, 10]: 29% | Helixes (%) [1, 10]: 18% | Sheets (%) [1, 10]: 29% | Turns (%) [1, 10]: 24% | PPI (%) mycelium (P. infestans [2]; Ala-scan of Ac-LP20 and CP20-Met-Ala, P. infestans mycelium in vitro): 78.80 ± 4.07% | isoelectric point [3]: 12.4 pH | net charge [3]: +3 | solubility in water [3]: good solubility in water | time of total proteolysis of the peptide (pronase [4]): 10 min | stability against proteolysis (pronase [4]): Low stability

CC(=O)NCCC(=O)NCC(=O)N[C@@H](CCCNC(=N)N)C(=O)N[C@@H](CC(C)C)C(=O)N[C@@H](CCCNC(=N)N)C(=O)N[C@@H](Cc1c[nH]c2ccccc12)C(=O)N[C@@H](CC(C)C)C(=O)N[C@@H](CCCNC(=N)N)C(=O)N[C@H](C(N)=O)C(C)C [Ac-LP32, Ac-βA -G-R-L-R-W-L-R-V-CONH2] (Ac-[βAla]GRLRWLRV-NH2)
Disordered (%) ([1]; 10 mM phosphate buffer, pH 7): 44% | Helixes (%) ([1]; 10 mM phosphate buffer, pH 7): 5% | Sheets (%) ([1]; 10 mM phosphate buffer, pH 7): 33% | Turns (%) ([1]; 10 mM phosphate buffer, pH 7): 18% | Disordered (%) ([1]; TFE (trifluoroethanol)): 51% | Helixes (%) ([1]; TFE (trifluoroethanol)): 5% | Sheets (%) ([1]; TFE (trifluoroethanol)): 30% | Turns (%) ([1]; TFE (trifluoroethanol)): 14% | Disordered (%) [1, 10]: 47% | Helixes (%) [1, 10]: 5% | Sheets (%) [1, 10]: 30% | Turns (%) [1, 10]: 18% | PPI (%) micelio (P. infestans [2]; Ala-scan of Ac-LP32, P. infestans mycelium in vitro): 70.23 ± 3.84% | isoelectric point [3]: 14 pH | net charge [3]: +3 | solubility in water [3]: good solubility in water | time of total proteolysis of the peptide (pronase [4]): 10 min | stability against proteolysis (pronase [4]): low stability

CSCC[C@@H]1NC(=O)[C@H](Cc2c[nH]c3ccccc23)NC(=O)[C@H](CCCNC(=N)N)NC(=O)CCNC(=O)[C@H](CCCNC(=N)N)NC(=O)[C@H](CCCNC(=N)N)NC(=O)[C@H](Cc2ccc(O)cc2)NC(=O)[C@H](C(C)C)NC(=O)[C@H](CC(C)C)NC1=O [CP20, βA-R-W-M-L-V-Y-R-R] (cyclo(LVYRR[βAla]RWM))
EC99 (P. infestans [5]; [11]): 68.37 µM | PGI (%) ± dev. std (Liquid medium) (P. infestans [5]): 86.19 ± 8.66 (b) % | PPI (%) ± Std. Dev. (P. infestans [2]; 200 µM, P. infestans mycelium, peptidomimetics): 92.39 ± 2.17 (a) % | PPI (P. infestans [2]; 200 µM, P. infestans mycelium): 89.53% | PPI (%) ± dev. std (Solid medium) (P. infestans [2]): 88.99 ± 7.56 (b) % | growth inhibition (OD620) (Saccharomyces cerevisiae): no growth inhibition | bacterial growth (OD620) (Escherichia coli DH5α): no alteration in bacterial growth | time after which cleavage was observed in the presence of protease (pronase [4]): 2 h | stability against proteolysis (pronase [4]): good stability against proteolysis | Percentage Protection Index for the leaf discs (PPI), reduction in symptoms (P. infestans [6]): 88.64%

CC(C)C[C@@H]1NC(=O)[C@H](CCCNC(=N)N)NC(=O)CNC(=O)CCNC(=O)[C@H](C(C)C)NC(=O)[C@H](CCCNC(=N)N)NC(=O)[C@H](CC(C)C)NC(=O)[C@H](Cc2c[nH]c3ccccc23)NC(=O)[C@H](CCCNC(=N)N)NC1=O [CP32, βA-G-R-L-R-W-L-R-V] (cyclo(GRLRWLRV[βAla]))
EC50 (P. infestans [5]; [11]): 16 µM | EC99 (P. infestans [5]; [11]): 56.18 µM | PGI (%) ± dev. std (Liquid medium) (P. infestans [5]): 90.61 ± 10.87 (b) % | PPI (P. infestans [2]; 200 µM, P. infestans mycelium): 87.44% | PPI (%) ± dev. std (Solid medium) (P. infestans [2]): 87.93 ± 9.47 (b) % | growth inhibition (OD620) (Saccharomyces cerevisiae): no growth inhibition | bacterial growth (OD620) (Escherichia coli DH5α): no alteration in bacterial growth | time of total proteolysis of the peptide (pronase [4]): 30 min | stability against proteolysis (pronase [4]): more stable against proteolysis than its linear analogues | Percentage Protection Index for the leaf discs (PPI), reduction in symptoms (P. infestans [6]): 90.03%

C#CCOc1ccc(CCNC(=O)C(OCC#C)c2ccc(Cl)cc2)cc1OC (stereo not shown) [Mandipropamid, mandipropamid]
PGI (%) ± dev. std (Liquid medium) (P. infestans [7]): 100.00 ± 0 (a) % | PPI (%) ± dev. std (Solid medium) (P. infestans [8]): 100.00 ± 0 (a) % | P. capsici (PIC - %) (P. capsici): 100 ± 0 (a) % | P. viticola (IPP - %) (P. viticola): 100 ± 0 (a) %

COCC(=O)N(c1c(C)cccc1C)[C@H](C)C(=O)OC [Metalaxyl-M]
P. ultimum (IPP - %) (P. ultimum): 100 ± 0 (a) %

[βAla]GRLRWLRV [CP32]
cleaved bond (pronase [9]): βAla-Gly, first_seen, After mixing protease with peptide solution; also recorded: Leu7-Arg8, first_seen, After mixing protease with peptide solution; also recorded: Arg8-Val; also recorded: Leu4-Arg5, 10 minutes; also recorded: Arg5-Trp, 10 minutes; also recorded: Trp-Leu7, 10 minutes

[βAla]GRLRWLRV [LP32]
cleaved bond (pronase [9]): Trp-Leu7, first_seen, immediately, after mixing protease with peptide solution; also recorded: Leu4-Arg5, 10 min; also recorded: Arg5-Trp, 10 min; also recorded: Leu7-Arg8, 10 min; also recorded: Arg8-Val, 10 min

[βAla]RWMLVYRR [CP20]
cleaved bond (pronase [9]): Arg8-Arg9, 2 hours; also recorded: Met4-Leu, 2 hours

[βAla]RWMLVYRR [LP20]
cleaved bond (pronase [9]): Met4-Leu, first_seen, t0; also recorded: Arg2-Trp3, 10 min; also recorded: Trp3-Met4, 10 min
